Experiments:
[1] = Drug-like properties: hydrophobicity; format: physicochemical
PrCSC cells [2] = assay: Cell proliferation (MTT) of prostate cancer stem cells; format: cell-based, human; details: as early as 24 hr after exposure
Description: Cell proliferation was assessed using an MTT [3-(4,5-dimethylthiazol-2-yl)-2,5-diphenyltetrazolium bromide] assay (Roche, Mannheim, Germany). The number of viable cells growing in a single well on a 96-well microtiter plate was estimated by adding 10 μl of MTT solution (5 mg/ml in phosphate-buffered saline [PBS]). After 4 h of incubation at 37°C, the stain was diluted with 100 μl of dimethyl sulfoxide. The optical densities were quantified at a test wavelength of 570 nm and a reference wavelength of 690 nm on a multiwell spectrophotometer. In some assays, MTS was used as substrate (Promega, Madison, WI), and the absorbance of the product was monitored at 490 nm. Cell enumeration was carried out using a hemocytometer, and viable cells identified by trypan blue exclusion.
Figure 2 Effects of PKCδ inhibitors on human cancer stem cells. (A) PCSC and PrCSC cells at 80% confluence were exposed to rottlerin. DMSO served as vehicle control (Vehicle). After 24 and 72 hr of exposure, cell mass was evaluated by MTT assay. […] Cytotoxicity was evaluated by LDH-release assay. […] Viable cells were enumerated and re-plated in media without inhibitor, and colony numbers were quantitated 15 days later. p values for comparison of treatment effects on clonogenic capacity reached significance (p=0.005) at 18 hr of exposure and remained significant for all subsequent exposure times. […]

PrCSC cells [3] = assay: Cytotoxicity (LDH release) in prostate cancer stem cells; format: cell-based, human; details: dose-dependent, 24 and 72 hr
Description: LDH release was assessed by spectrophotometrically measuring the oxidation of NADH in both the cells and media. Cells were seeded in 24-well plates, and exposed to PKCδ inhibitors or vehicle. After different times of exposure, cytotoxicity was quantified by a standard measurement of LDH release with the use of the LDH assay kit (Roche Molecular Biochemicals) according to the manufacturer’s protocol. Briefly, total culture medium was cleared by centrifugation. For assay of released LDH, supernatants were collected. To assess total LDH in cells, Triton X-100 was added to vehicle (control) wells to release intracellular LDH. LDH assay reagent was added to lysates or supernatants and incubated for up to 30 min at room temperature in dark, the reaction was stopped, and the absorbance was measured at 490 nm. The percentage of LDH release was then calculated as the LDH in the supernatants as a fraction of the total LDH.
Figure 2 Effects of PKCδ inhibitors on human cancer stem cells. (A) PCSC and PrCSC cells at 80% confluence were exposed to rottlerin. DMSO served as vehicle control (Vehicle). After 24 and 72 hr of exposure, cell mass was evaluated by MTT assay. Control values were normalized to 100%. p values for comparison between treatments reached significance at 24 hr of exposure (p≤0.01) for both cell types, and remained significant at 72 hr. (B) PCSC and PrCSC cells at 50% confluence were exposed to rottlerin. Cytotoxicity was evaluated by LDH-release assay. […] Viable cells were enumerated and re-plated in media without inhibitor, and colony numbers were quantitated 15 days later. p values for comparison of treatment effects on clonogenic capacity reached significance (p=0.005) at 18 hr of exposure and remained significant for all subsequent exposure times. […] Cytotoxicity was evaluated by LDH-release assay, as in panel B. p values for comparison between treatment effects on LDH release reached significance at 24 hr of exposure to 2.5 μM KAM1 for PCSC cells and at 10 μM for PrCSC (p≤0.01), and remained significant at 72 hr for all concentrations of KAM1. […]

PCSC = assay: Clonogenic assay with washout; format: cell-based, human; details: rottlerin 10 μM, colonies at 15 days
Description: 100,000 cells were seeded on 100 mm dishes with 10 ml media per dish. On day 4, cells were treated with a PKCδ inhibitor or vehicle control for either 6, 18, 24 or 48 hours. Cells were trypsinized; counted via the trypan blue exclusion method in order to determine the number of live cells in the sample, and 300 live cells were seeded in triplicate onto 6-well plates. Cells were monitored for appropriate colony size and re-fed every three to four days. At Day 15, cells were stained with ethidium bromide and counted using UVP LabWorks software (Waltham, MA).
Figure 2 Effects of PKCδ inhibitors on human cancer stem cells. (A) PCSC and PrCSC cells at 80% confluence were exposed to rottlerin. DMSO served as vehicle control (Vehicle). After 24 and 72 hr of exposure, cell mass was evaluated by MTT assay. Control values were normalized to 100%. p values for comparison between treatments reached significance at 24 hr of exposure (p≤0.01) for both cell types, and remained significant at 72 hr. […] Cytotoxicity was evaluated by LDH-release assay. […] Viable cells were enumerated and re-plated in media without inhibitor, and colony numbers were quantitated 15 days later. p values for comparison of treatment effects on clonogenic capacity reached significance (p=0.005) at 18 hr of exposure and remained significant for all subsequent exposure times. […]

[4] = test system: human breast cancer stem cell (BCSC) xenografts; assay: Breast cancer stem cell xenograft model; format: in vivo, mice; details: rottlerin 5,000 μg/kg intraperitoneally, 15 days
Description: These studies were performed with the approval of the Institutional Animal Care and Use Committee of Boston University. Breast cancer stem cells (2 × 10^5) grown from a metastatic tumor were suspended in human breast cancer stem cell complete growth media (Celprogen, San Pedro, CA) and injected subcutaneous into the right flank of female J:NU mice (The Jackson Laboratory, ME) under anesthesia. After palpable tumors developed, the mice were divided into two groups of animals. The control group received daily intraperitoneal injections of vehicle (DMSO) while the treatment group received daily intraperitoneal injections of a PKCδ inhibitor (rottlerin 5,000 μg/kg) for 15 days. The length and width of tumors were measured with a vernier caliper and tumor volumes were calculated. Survival was calculated as the day tumors reached the maximum size allowed by the protocol (2 cm diameter).
Figure 6 Effects of PKCδ inhibitor on tumor growth and survival in a xenograft human breast cancer stem cell model. Breast cancer stem cell xenografts were established and animals were treated with vehicle or rottlerin for 15 days, as described in Methods. (A) Tumor volumes plotted over time, until tumors in all the control animals reached the maximum volume allowed by the protocol (approximately 15 days). […]

[5] = mice; cited from earlier work

Row | hydrophobicity [1] | SMILES | effect on proliferation of PrCSC (PrCSC cells [2]) | cytotoxicity in PrCSC (LDH release) (PrCSC cells [3]) | decrease of clonogenic capacity of PCSC (PCSC; 18 hr exposure then washout) | reduction of clonogenic potential of PCSC (PCSC; 48 hr exposure then washout) | survival / tumor-free status after treatment ([4]; monitoring continued after cessation) | effect on growth of BCSC xenografts ([4]; nude (J:NU) mice, vs vehicle) | tolerability when administered orally or intraperitoneally [5]
1 | highly hydrophobic | CC1(C)C=Cc2cc(CCn3c4ccccc4c4ccccc43)cc(C=O)c2O1 [BJE6-106, 6-(2-(9H-carbazol-9-yl)ethyl)-2,2-dimethyl-2H-chromene-8-carbaldehyde] | – | – | – | – | – | – | –
2 | – | CC(=O)c1c(O)c(C)c(O)c(Cc2c(O)c3c(c(C(=O)/C=C/c4ccccc4)c2O)OC(C)(C)C=C3)c1O [rottlerin, Rottlerin, reference compound] | significant dose-dependent inhibition of proliferation | induced cytotoxicity | 40% | more than 90% | some animals remaining tumor-free even at day 300 | effectively inhibited the growth of the xenografts, even producing tumor regression | well-tolerated
